The results in this text go back to ChEMBL document CHEMBL1123401, “Mapping the turkey erythrocyte beta receptor: a distance geometry approach” (J Med Chem, 1986).

Molecules are shown by their SMILES.

The test system of this experiment is Erythrocyte beta receptor. Nature of the experiment: Free energy of binding to turkey erythrocyte beta receptor. On the set-up: unit not given here. As to conditions: Meleagris gallopavo.
On to `C=CCc1cccc(OC[C@@H](O)CNC(C)C)c1`, for which the Delta G was -8.82.
For `CC(C)NC[C@H](O)COc1cccc2c(O)cccc12`, the Delta G is -11.2.
In the case of `CC(C)NC[C@@H](O)COc1cccc2ccccc12`, the Delta G was -11.7.
As to `CC(C)(C)NC[C@H](O)COc1cccc2[nH]ccc12`, the Delta G is -13.5.
On to `CNC[C@H](O)c1cccc(O)c1`, for which the Delta G was -6.72.
As for `CCNC[C@H](O)c1ccc(O)c(O)c1`, the Delta G was -7.59.
`CC(C)(C)NC[C@H](O)COC1=CC=CC2C(=O)C=CC=C12` (some centres not stated) gave a Delta G of -11.9.
`NC[C@H](O)COc1cccc2ccccc12` returned a Delta G of -10.9.
For `CC[C@H](NC(C)C)[C@H](O)c1ccc(O)c(O)c1`, the Delta G was -8.02.
As for `CN[C@@H](C)[C@H](O)c1ccc(O)cc1`, the Delta G is -6.47.
`C=CCc1ccccc1OC[C@@H](O)CNC(C)C` displayed a Delta G of -12.1.
Compound `CNC[C@H](O)c1ccc(O)cc1` came in with a Delta G of -6.01.
For `CC(C)NC[C@H](O)COc1ccc(O)cc1`, the Delta G is -8.91.
The compound `CC(C)NC[C@H](O)COc1ccccc1I` yielded a Delta G of -12.8.
Turning to `CNC[C@H](O)c1ccc(O)c(O)c1`, the Delta G was -7.86.
`CC(C)NC[C@H](O)COc1ccc(N)cc1`: the Delta G is -8.96.
`NC[C@H](O)c1cccc(O)c1` returned a Delta G of -7.23.
As to `CC(C)NC[C@H](O)c1ccc(O)cc1`, the Delta G is -7.54.
`CC(=O)Nc1ccc(OC[C@@H](O)CNC(C)C)cc1` returned a Delta G of -7.54.
In turn, `CC(C)(C)NC[C@H](O)c1cc(O)cc(CO)c1` came in with a Delta G of -6.58.
The figure for `CC(CCc1ccccc1)N[C@@H](C)[C@H](O)c1ccc(O)cc1` (some centres not stated) is -9.55.
In the case of `O[C@@H](CNc1ccccc1)c1ccccc1`, the Delta G was -5.76.
Compound `C[C@H](NCCc1ccccc1)[C@H](O)c1ccc(O)cc1` yielded a Delta G of -9.01.
With `CC(Cc1ccc(O)cc1)NC[C@H](O)c1cc(O)cc(O)c1` (some centres not stated), the Delta G is -8.62.
As for `CNC[C@H](O)c1ccccc1`, the Delta G was -6.79.
In the case of `CC(C)(Cc1ccc(O)cc1)NC[C@H](O)COc1cccc2ccccc12`, the Delta G is -11.2.
Take `C[C@H](N)[C@H](O)c1ccc(O)cc1`: the Delta G was -6.27.
In the case of `CC(C)NC[C@H](O)COc1cccc2[nH]ccc12`, the Delta G is -13.
Take `CC(Cc1ccc(O)cc1)NC[C@H](O)c1ccc(O)c(O)c1` (some centres not stated): the Delta G was -10.4.
With `CC(C)(Cc1ccccc1)NC[C@H](O)c1ccc(O)c(NS(C)(=O)=O)c1`, the Delta G was -9.64.
In the case of `CS(=O)(=O)Nc1cc([C@@H](O)CNC2CC2)ccc1O`, the Delta G was -8.19.
Consider `C[C@H](COc1ccccc1)NC[C@H](O)c1ccc(O)cc1`, for which the Delta G was -7.95.
Turning to `Oc1ccc(CCNC[C@H](O)COc2cccc3ccccc23)cc1`, the Delta G was -10.9.
With `CC(C)NC[C@H](O)c1ccc(NS(C)(=O)=O)c(O)c1`, the Delta G is -6.29.
As for `CC(C)NCC(O)c1ccc(O)c(O)c1` (configuration not stated), the Delta G was -9.18.
`C=CCOc1ccccc1OC[C@@H](O)CNC(C)C`: the Delta G is -11.6.
In the case of `CC[C@H](NC(C)C)[C@H](O)c1ccc(NS(C)(=O)=O)cc1`, the Delta G is -7.41.
In turn, `CC(Cc1ccc2c(c1)OCO2)NC[C@H](O)c1ccc(O)c(O)c1` (some centres not stated) yielded a Delta G of -9.88.
`CC(C)NC[C@H](O)c1ccc(O)c(CS(C)(=O)=O)c1` displayed a Delta G of -7.85.
In turn, `CC(C)NC[C@H](O)c1ccc(NS(C)(=O)=O)cc1` showed a Delta G of -8.46.
The figure for `CC(C)(Cc1ccc(O)cc1)NC[C@H](O)c1cc(O)cc(CO)c1` is -7.61.
The figure for `CC(C)(C)NC[C@H](O)c1ccc(O)c(CO)c1` is -8.23; for `NC[C@H](O)c1ccc(O)c(O)c1` it is -7.26.
The figure for `CC(C)NC[C@H](O)c1cc(O)cc(O)c1` is -7.13; for `CC(C)NC[C@H](O)c1cccc(O)c1` it is -7.99; for `CC(C)NC[C@H](O)c1ccc2ccccc2c1` it is -9.06.
For `CC(C)NC[C@H](O)c1ccc(O)c(NS(C)(=O)=O)c1`, the Delta G was -7.36.
`NC[C@H](O)c1ccc(O)cc1` yielded a Delta G of -5.94.
Regarding `CC(C)NC[C@H](O)COc1ccc(O)c(O)c1`, the Delta G is -9.13.
As to `COc1ccc(CC(C)NC[C@H](O)c2ccc(O)c(CO)c2)cc1` (some centres not stated), the Delta G is -7.65.
Compound `CCNC[C@H](O)c1cccc(O)c1` came in with a Delta G of -6.75.
`CC(C)(Cc1ccc(O)cc1)NC[C@H](O)COc1cccc2[nH]ccc12` showed a Delta G of -14.7.
For `C[C@H](N)[C@H](O)c1ccc(O)c(O)c1`, the Delta G is -9.64.
The figure for `CC(C)(Cc1ccc(O)cc1)NC[C@H](O)c1ccc(O)c(O)c1` is -10; for `CC(C)NC[C@H](O)c1ccc(O)c2ncccc12` it is -10.4; for `COc1ccc(CCNC[C@H](O)COC2=CC=CC3C(=O)C=CC=C23)cc1OC` (some centres not stated) it is -11.3.
In turn, `CC(C)NC[C@H](O)c1ccc(Cl)c(Cl)c1` registered a Delta G of -8.83.
